The values that follow come from patent publication US10292391B2, “Pesticidally active 1,2,4-triazole derivatives with sulphur containing substituents” (Syngenta Participations AG, priority 2015, dated 2019).

Bounds are passed on as bounds.

In data set [1] the test system is Spodoptera littoralis (Egyptian Cotton Leaf Worm). As to the kind of experiment: Activity against Spodoptera littoralis, sprayed cotton leaf discs. The class given is in vivo. As to conditions: foliar, 72 h, application rate of 200 ppm, L1 larvae, 3 days after infestation, read-out: control (at least one of mortality, anti-feedant effect, and growth inhibition). On the procedure: Cotton leaf discs were placed on agar in 24-well microtiter plates and sprayed with aqueous test solutions prepared from 10,000 ppm DMSO stock solutions. After drying the leaf discs were infested with five L1 larvae. The samples were assessed for mortality, anti-feedant effect, and growth inhibition in comparison to untreated samples 3 days after infestation. Control of Spodoptera littoralis by a test sample is when at least one of mortality, anti-feedant effect, and growth inhibition is higher than the untreated sample.

The test system is the same in data set [2]. Kind of data set: Activity against Spodoptera littoralis, systemic via lettuce grown on treated agar. As to conditions: 144 h, test rate of 12.5 ppm, root uptake by lettuce, 6 days after infestation, read-out: effect in at least one of the three categories (mortality, anti-feedancy, or growth inhibition). The class given is in vivo. The source says: Test compounds were applied by pipette from 10,000 ppm DMSO stock solutions into 24-well plates and mixed with agar. Lettuce seeds were placed on the agar and the multi well plate was closed by another plate which contains also agar. After 7 days the roots have absorbed the compound and the lettuce has grown into the lid plate. The lettuce leafs were now cut off into the lid plate. Spodoptera eggs were pipetted through a plastic stencil on a humid gel blotting paper and the plate closed with it. The samples were assessed for mortality, anti-feedant effect and growth inhibition in comparison to untreated samples 6 days after infestation.

Data set [3] concerns Plutella xylostella (Diamond Back Moth). As to the kind of experiment: Activity against Plutella xylostella, treated artificial diet. Format: in vivo. As to conditions: 120 h, application rate of 200 ppm, L2 larvae, 5 days after infestation, read-out: effect in at least one of the two categories (mortality or growth inhibition). Here is the method:
24-well microtiter plates with artificial diet were treated with aqueous test solutions prepared from 10,000 ppm DMSO stock solutions by pipetting. After drying, the plates were infested with L2 larvae (10 to 15 per well). The samples were assessed for mortality and growth inhibition in comparison to untreated samples 5 days after infestation.

The subject of data set [4] is Diabrotica Balteata (Corn Root Worm). Kind of data set: Activity against Diabrotica balteata, sprayed maize sprouts. The class given is in vivo. As to conditions: 96 h, application rate of 200 ppm, L2 larvae, 4 days after infestation, read-out: effect in at least one of the two categories (mortality or growth inhibition). On the procedure: Maize sprouts, placed on an agar layer in 24-well microtiter plates were treated with aqueous test solutions prepared from 10,000 ppm DMSO stock solutions by spraying. After drying, the plates were infested with L2 larvae (6 to 10 per well). The samples were assessed for mortality and growth inhibition in comparison to untreated samples 4 days after infestation.

The subject of data set [5] is Myzus persicae (Green Peach Aphid). As to the kind of experiment: Activity against Myzus persicae, sprayed sunflower leaf discs. The class given is in vivo. As to conditions: foliar, 144 h, application rate of 200 ppm, aphid population of mixed ages, 6 days after infestation. On the procedure: Sunflower leaf discs were placed on agar in a 24-well microtiter plate and sprayed with aqueous test solutions prepared from 10,000 ppm DMSO stock solutions. After drying, the leaf discs were infested with an aphid population of mixed ages. The samples were assessed for mortality 6 days after infestation.

For data set [6], the system named is Frankliniella occidentalis (Western Flower Thrips). As to the kind of experiment: Activity against Frankliniella occidentalis, sprayed sunflower leaf discs. Format: in vivo. As to conditions: foliar, 168 h, application rate of 200 ppm, population of mixed ages, 7 days after infestation. Here is the method: Sunflower leaf discs were placed on agar in 24-well microtiter plates and sprayed with aqueous test solutions prepared from 10,000 DMSO stock solutions. After drying the leaf discs were infested with a Frankliniella population of mixed ages. The samples were assessed for mortality 7 days after infestation.

In data set [7] the test system is Bemisia tabaci (Cotton White Fly). Kind of data set: Activity against Bemisia tabaci, sprayed cotton leaf discs. The class given is in vivo. As to conditions: foliar, 144 h, application rate of 200 ppm, adult white flies, 6 days after incubation. Here is the method: Cotton leaf discs were placed on agar in 24-well microtiter plates and sprayed with aqueous test solutions prepared from 10,000 ppm DMSO stock solutions. After drying the leaf discs were infested with adult white flies. The samples were checked for mortality 6 days after incubation.

The test system of data set [8] is Euschistus heros(Neotropical Brown Stink Bug). As to the kind of experiment: Activity against Euschistus heros, sprayed soybean leaf. Format: in vivo. As to conditions: 120 h, application rate of 200 ppm, N-2 nymphs, 5 days after infestation, read-out: effect in at least one of the two categories (mortality or growth inhibition). Here is the method:
Soybean leaf on agar in 24-well microtiter plates were sprayed with aqueous test solutions prepared from 10,000 ppm DMSO stock solutions. After drying the leaf were infested with N-2 nymphs. The samples were assessed for mortality and growth inhibition in comparison to untreated samples 5 days after infestation.

Data set [9] deals with Thrips tabaci (Onion Thrips). Kind of data set: Activity against Thrips tabaci, sprayed sunflower leaf discs. The class given is in vivo. As to conditions: foliar, 144 h, application rate of 200 ppm, thrips population of mixed ages, 6 days after infestation. On the procedure:
Sunflower leaf discs were placed on agar in 24-well microtiter plates and sprayed with aqueous test solutions prepared from 10,000 ppm DMSO stock solutions. After drying the leaf discs were infested with a thrips population of mixed ages. The samples were assessed for mortality 6 days after infestation.

Data set [10] deals with Myzus persicae (Green Peach Aphid). Kind of data set: Activity against Myzus persicae, systemic via roots of pea seedlings. As to conditions: 144 h, test rate of 24 ppm, roots of pea seedlings in test solution, 6 days. Format: in vivo. Here is the method:
Roots of pea seedlings infested with an aphid population of mixed ages were placed directly in the aqueous test solutions prepared from 10,000 DMSO stock solutions. The samples were assessed for mortality 6 days after placing seedlings in test solutions.

Data set [11] relates to Tetranychus urticae (Two-Spotted Spider Mite). As to the kind of experiment: Activity against Tetranychus urticae, sprayed bean leaf discs. Format: in vivo. As to conditions: foliar, 192 h. On the procedure: Bean leaf discs on agar in 24-well microtiter plates were sprayed with aqueous test solutions prepared from 10,000 ppm DMSO stock solutions. After drying the leaf discs were infested with a mite population of mixed ages. The samples were assessed for mortality on mixed population (mobile stages) 8 days after infestation.

On to `CCS(=O)(=O)c1cc(-n2cc(C(F)(F)F)cn2)cnc1-c1nnc(-c2cc(C(F)(F)F)ccn2)n1C` [Compound P6], for which the mortality at 200 ppm in data set [1], in data set [5], in data set [6], in data set [7] and in [9] was not below 80% in each case. In data set [2], the percent control (mortality, anti-feedancy or growth inhibition) at 12.5 ppm is not below 80%. Moreover, the percent effect (mortality or growth inhibition) at 200 ppm in data set [3], in data set [4] and in [8] was not below 80% each time.
`CCS(=O)(=O)c1cc(-n2cc(C#N)cn2)cnc1-c1nnc(-c2cc(C(F)(F)F)ccn2)n1C` [Compound P14, 1-[5-ethylsulfonyl-6-[4-methyl-5-[4-(trifluoromethyl)-2-pyridyl]-1,2,4-triazol-3-yl]-3-pyridyl]pyrazole-4-carbonitrile]: the mortality at 200 ppm in data set [1], in data set [5], in [6], in [7] and in data set [9] was not below 80% throughout. The percent control (mortality, anti-feedancy or growth inhibition) at 12.5 ppm in [2] is not below 80%. Moreover, the percent effect (mortality or growth inhibition) at 200 ppm in data set [3], in [4] and in data set [8] was not below 80% throughout. The mortality at 24 ppm in data set [10] is not below 80%.
In the case of `CCS(=O)(=O)c1cc(C2(C#N)CC2)cnc1-c1nnc(-c2cc(C(F)(F)F)ccn2)n1C` [Compound P17, 1-[5-ethylsulfonyl-6-[4-methyl-5-[4-(trifluoromethyl)-2-pyridyl]-1,2,4-triazol-3-yl]-3-pyridyl]cyclopropanecarbonitrile], the mortality at 200 ppm in data set [1], in data set [5], in data set [6], in data set [7] and in data set [9] was not below 80% throughout. Also, the percent control (mortality, anti-feedancy or growth inhibition) at 12.5 ppm in data set [2] is not below 80%. Besides, the percent effect (mortality or growth inhibition) at 200 ppm in [3], in data set [4] and in [8] was not below 80% throughout. Further, in [10], the mortality at 24 ppm was not below 80%.
In the case of `CCS(=O)(=O)c1cc(-c2nccc(C#N)n2)cnc1-c1nnc(-c2cc(C(F)(F)F)ccn2)n1C` [Compound P19], the mortality at 200 ppm in data set [1] and in [11] was not below 80% each time. Also, the percent effect (mortality or growth inhibition) at 200 ppm in data set [4] is not below 80%.
In the case of `CCS(=O)(=O)c1cc(-n2cnc(Cl)n2)cnc1-c1nnc(-c2cc(C(F)(F)F)ccn2)n1C` [Compound P27], the mortality at 200 ppm in [1], in data set [5], in [6], in data set [7] and in data set [9] was not below 80% each time. For the same compound, in [2], the percent control (mortality, anti-feedancy or growth inhibition) at 12.5 ppm is not below 80%. Further, the percent effect (mortality or growth inhibition) at 200 ppm in data set [3], in data set [4] and in data set [8] was not below 80% each time. Besides, the mortality at 24 ppm in data set [10] was not below 80%.
On to `CCSc1ccc(-c2ccc(C(F)(F)F)cc2)nc1-c1nnc(-c2cc(C(F)(F)F)ccn2)n1C` [Compound P31, 3-ethylsulfanyl-2-[4-methyl-5-[4-(trifluoromethyl)-2-pyridyl]-1,2,4-triazol-3-yl]-6-[4-(trifluoromethyl)phenyl]pyridine], for which the melting point was in the range of 174 to 175 °C.
With `CCS(=O)(=O)c1ccc(-c2ccc(C(F)(F)F)cc2)nc1-c1nnc(-c2cc(C(F)(F)F)ccn2)n1C` [Compound P32, 3-ethylsulfonyl-2-[4-methyl-5-[4-(trifluoromethyl)-2-pyridyl]-1,2,4-triazol-3-yl]-6-[4-(trifluoromethyl)phenyl]pyridine], the mortality at 200 ppm in [1], in data set [7] and in data set [9] was not below 80% each time. The percent effect (mortality or growth inhibition) at 200 ppm in data set [3] and in [4] was not below 80% each time.
`CCSc1cc(SC(F)(F)F)cnc1-c1nnc(-c2cc(C(F)(F)F)ccn2)n1C` [Compound P33, 3-ethylsulfanyl-2-[4-methyl-5-[4-(trifluoromethyl)-2-pyridyl]-1,2,4-triazol-3-yl]-5-(trifluoromethylsulfanyl)pyridine] displayed a melting point of 94 to 95 °C.
Regarding `CCS(=O)(=O)c1ccc(-n2cncn2)nc1-c1nnc(-c2cc(C(F)(F)F)ccn2)n1C` [Compound P37], the mortality at 200 ppm in data set [1], in data set [5] and in data set [7] was not below 80% each time. The percent effect (mortality or growth inhibition) at 200 ppm in data set [3], in data set [4] and in data set [8] was not below 80% each time. In data set [10], this compound registered a mortality at 24 ppm not below 80%.
As for `CCS(=O)(=O)c1cc(-n2cnc(Cl)n2)cnc1-c1nnc(-c2cc(C(F)(F)F)ncn2)n1C` [Compound P45], the mortality at 200 ppm in [1], in data set [5], in data set [6], in data set [7] and in data set [9] was not below 80% each time. Further, the percent effect (mortality or growth inhibition) at 200 ppm in [3], in data set [4] and in data set [8] was not below 80% in each case. Besides, in data set [10], the mortality at 24 ppm is not below 80%.
As to `CCS(=O)(=O)c1ccc(-n2cnc(Cl)n2)nc1-c1nnc(-c2cc(C(F)(F)F)ncn2)n1C` [Compound P48, 4-[5-[6-(3-chloro-1,2,4-triazol-1-yl)-3-ethylsulfonyl-2-pyridyl]-4-methyl-1,2,4-triazol-3-yl]-6-(trifluoromethyl)pyrimidine], the mortality at 200 ppm in [1], in data set [5], in data set [6] and in data set [7] was not below 80% throughout. The percent control (mortality, anti-feedancy or growth inhibition) at 12.5 ppm in data set [2] was not below 80%. The percent effect (mortality or growth inhibition) at 200 ppm in data set [3], in data set [4] and in data set [8] was not below 80% in each case.
In the case of `CCS(=O)(=O)c1ccc(-n2cnc(C#N)n2)nc1-c1nnc(-c2cc(C(F)(F)F)ncn2)n1C` [Compound P49], the melting point lay within 242 to 244 °C.
The same measure, in the same setting: to `CCS(=O)(=O)c1ccc(-c2cccc(F)c2)nc1-c1nnc(-c2cc(C(F)(F)F)ncn2)n1C` [Compound P51] belongs 201 to 203 °C.

The term mortality denotes the share of the test organisms that died. In general, melting point refers to the temperature of the solid-liquid transition.
